# Measured values as given in patent publication EP3315495A1, “N,N' -[…], N,N' -DIAR[…] N,N' -DIARY[…] FOR USE IN TREATMENT AND PREVENTION OF INFLAMMATORY DISEASE” (Universität Innsbruck, priority 2016, dated 2018).
# pIC50: −log10 of the molar value. Read-outs that look alike come from different tables or passages of the source. Marks after values point to notes of the source that are not given here.
# How the values were obtained:
# [1] = system: 5-LOX product formation in PMNL; test: 5-LOX product formation in PMNL stimulated with A23187 (cell-based); parameters: species or system human; conditions: Homo sapiens, PMNL
# Protocol: Briefly, first a cell-based assay allows to determine the inhibition of the 5-LOX product biosynthesis. The cell suspension contained human neutrophils (PMNL) or monocytes, wherein the cells were isolated from buffy coats obtained from healthy donors pooled by gender. An aliquot cell suspension was incubated with the candidate compound for 15 min at 37 °C. The cells are treated with calcium ionophore A23187 to stimulate 5-LOX product formation for further 10 min (37 °C), optionally in presence of various concentrations of AA. The reaction was stopped with 1 mL methanol on ice.
# In both assays, product quantification was conducted with RP-HPLC and UV detection after solid phase extraction and addition of 200 ng prostaglandin B1 as internal standard.
# 12-LOX = format: cell-based; conditions: neutrophils, exogenous AA 10, 30 or 60 µM
# Description: (§1) […]. […] This could be beneficial as the 15-LOX product 15-HETE is anti-inflammatory.
# 15-LOX = format: cell-based; conditions: neutrophils
# Description: as §1
# COX-1 = COX-1 (Homo sapiens, UniProt P23219); test: COX-1 activity; format: biochemical; conditions: concentrations up to 10 µM
# COX-2 = molecular target: T1, COX-2 (Homo sapiens, UniProt P35354); test: COX-2 activity; format: biochemical; conditions: concentrations up to 10 µM
# T1 sequence (P35354 18-604): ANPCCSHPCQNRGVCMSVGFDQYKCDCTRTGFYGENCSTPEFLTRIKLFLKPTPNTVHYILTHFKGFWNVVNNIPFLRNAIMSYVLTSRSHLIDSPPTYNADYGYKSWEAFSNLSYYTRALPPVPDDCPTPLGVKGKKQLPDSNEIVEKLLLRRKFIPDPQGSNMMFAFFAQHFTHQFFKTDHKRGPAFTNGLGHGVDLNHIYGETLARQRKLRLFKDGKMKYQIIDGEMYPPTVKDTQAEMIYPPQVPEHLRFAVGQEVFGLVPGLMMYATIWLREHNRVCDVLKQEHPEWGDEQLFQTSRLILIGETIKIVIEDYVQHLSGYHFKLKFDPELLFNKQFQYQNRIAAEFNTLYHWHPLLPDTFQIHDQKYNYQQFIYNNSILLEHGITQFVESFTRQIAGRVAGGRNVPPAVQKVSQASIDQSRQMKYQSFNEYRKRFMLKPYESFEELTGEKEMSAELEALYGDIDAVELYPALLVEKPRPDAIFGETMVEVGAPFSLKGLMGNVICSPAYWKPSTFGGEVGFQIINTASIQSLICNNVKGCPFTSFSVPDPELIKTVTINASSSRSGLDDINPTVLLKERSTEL
# mPGES = mPGES activity; format: biochemical; conditions: concentrations up to 10 µM
# [2] = system: leukotriene mediated peritonitis; test: Zymosan-induced peritonitis model in mice; format: in vivo, CD1 male mice; conditions: intraperitoneal, 30 min prior to zymosan
# Protocol: Compound I-12 was evaluated in vivo in a peritonitis model in mice. The experimental protocols were approved by the Animal Care Committee of the University of Naples Federico II, in compliance with Italian regulations on protection of animals used for experimental and other scientific purpose (Ministerial Decree 116/92) as well as with the European Economic Community regulations (Official Journal of E.C. L 358/1 12/18/1986); protocol number: 2014/0018760 27th February 2014. CD1 male mice with an age of six to eight weeks were investigated. The leukotriene mediated peritonitis is induced by injection of 1 mg zymosan in 50 µl saline solution. 30 min prior to induction, the candidate compound was applied as intraperitoneal injection in different concentrations as well as DMSO as negative control and positive controls (MK886, zileuton). Results are given in Table 3, wherein […] and LTB 4 levels are measured as well as vascular permeability (VP) and the cell recruitment in the peritoneal cavity (Cell Rec). Table 3: Results from an in vivo study with a mouse peritonitis model
# In Table 3, values in percent indicate the percent inhibition in respect to the vehicle control. Statistical significance is determined via ANOVA Bonferroni, wherein * indicates p<0.05; ** indicates p<0.01; *** indicates p<0.001 vs. vehicle. N indicates the number of investigated mice.
# HEK cells with FLAP = test: 5-LOX product formation in HEK cells that express FLAP
# Sequence of COX-1 (P23219 24-599): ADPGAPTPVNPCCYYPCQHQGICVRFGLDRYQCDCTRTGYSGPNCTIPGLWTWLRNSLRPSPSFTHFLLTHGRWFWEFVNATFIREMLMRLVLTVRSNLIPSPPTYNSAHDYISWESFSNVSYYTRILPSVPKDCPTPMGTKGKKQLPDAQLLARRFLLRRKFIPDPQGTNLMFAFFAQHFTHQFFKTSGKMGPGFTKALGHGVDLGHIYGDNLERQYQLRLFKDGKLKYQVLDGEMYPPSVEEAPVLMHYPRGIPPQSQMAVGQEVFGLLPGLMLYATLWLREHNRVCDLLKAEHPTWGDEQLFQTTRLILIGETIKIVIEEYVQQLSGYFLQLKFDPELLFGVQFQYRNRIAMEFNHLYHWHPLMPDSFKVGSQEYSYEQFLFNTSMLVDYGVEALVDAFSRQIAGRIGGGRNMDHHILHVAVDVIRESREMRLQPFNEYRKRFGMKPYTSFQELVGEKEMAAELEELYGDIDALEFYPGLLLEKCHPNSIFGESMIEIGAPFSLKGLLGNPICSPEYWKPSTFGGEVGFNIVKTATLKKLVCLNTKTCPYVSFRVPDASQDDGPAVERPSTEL
smiles,measurement,setting,value
"Cc1cc(OCc2nc3ccccc3s2)ccc1NC(=O)Nc1ccc(Cl)c(Cl)c1 [Compound I-12, N-[4-(2-benzothiazolylmethoxy)-2-methylphenyl]-N'-(3,4-dichlorophenyl)-urea]",pIC50,"[1]; male PMNL cells, Exogenous AA 3 µM, read-out: IC50 values for 5-LOX product formation",6.42
same,pIC50,"[1]; male PMNL cells, Exogenous AA 10 µM, read-out: IC50 values for 5-LOX product formation",5.80
same,pIC50,"[1]; male PMNL cells, Exogenous AA 30 µM, read-out: IC50 values for 5-LOX product formation",5.68
same,pIC50,"[1]; male PMNL cells, Exogenous AA 60 µM, read-out: IC50 values for 5-LOX product formation",5.04
same,pIC50,"[1]; read-out: Effect on 5-LOX product formation in PMNL, IC50",6.62
same,product formation of 12-LOX,12-LOX,did not inhibit
same,product formation of 15-LOX (15-HETE),15-LOX; 10 µM AA,increase of the product formation
same,product formation of 15-LOX,"15-LOX; exogenous AA 10, 30 or 60 µM",did not inhibit
same,COX-1 activity,COX-1,not affected
same,COX-2 activity,COX-2,not affected
same,mPGES,mPGES,not affected
same,Cell Rec (cell recruitment in the peritoneal cavity),[2]; 1 mg,5.93±0.321 10^6/ml
same,"Cell Rec, percent inhibition in respect to the vehicle control",[2]; 1 mg,22%
same,LTB4,[2]; 1 mg,280 ± 42.8 pg/mL
same,"LTB4, percent inhibition in respect to the vehicle control",[2]; 1 mg,59%**
same,LTC4,[2]; 1 mg,26.0 ± 9.47 ng/mL
same,"LTC4, percent inhibition in respect to the vehicle control",[2]; 1 mg,70%***
same,Cell Rec (cell recruitment in the peritoneal cavity),[2]; 3 mg,4.4±0.509 10^6/ml
same,"Cell Rec, percent inhibition in respect to the vehicle control",[2]; 3 mg,42%***
same,LTB4,[2]; 3 mg,345 ± 69.2 pg/mL
same,"LTB4, percent inhibition in respect to the vehicle control",[2]; 3 mg,50%*
same,LTC4,[2]; 3 mg,30.5 ± 10.3 ng/mL
same,"LTC4, percent inhibition in respect to the vehicle control",[2]; 3 mg,66%***
same,Cell Rec (cell recruitment in the peritoneal cavity),[2]; 10 mg,3.36±0.439 10^6/ml
same,"Cell Rec, percent inhibition in respect to the vehicle control",[2]; 10 mg,56%***
same,LTB4,[2]; 10 mg,193 ± 34.4 pg/mL
same,"LTB4, percent inhibition in respect to the vehicle control",[2]; 10 mg,72%***
same,LTC4,[2]; 10 mg,25.8 ± 2.66 ng/mL
same,"LTC4, percent inhibition in respect to the vehicle control",[2]; 10 mg,70%***
same,VP (vascular permeability),[2]; 10 mg,0.347±0.09 abs 610 nm
same,"VP, percent inhibition in respect to the vehicle control",[2]; 10 mg,38%
same,effect on 5-LOX product formation,HEK cells without FLAP,nearly no effect
same,effect on 5-LOX product formation,HEK cells with FLAP,inhibits the product formation
